According to PMC10149936, “Cofilin activation in pancreatic acinar cells plays a pivotal convergent role for mediating CCK-stimulated enzyme secretion and growth” (Frontiers in Physiology, 2023):

Columns and labels:
pancreatic acini = experiment: amylase release from pancreatic acini (Phadebas); assay type: cell-based, rat; conditions: for inhibition of amylase secretion stimulated by CCK-8 and TPA / effect on basal amylase release: Cytochalasin D 10 µM or Paclitaxel 5 µM; for inhibition of amylase secretion stimulated by CCK-8 and TPA: 4 h, CCK-8 0.3 and 100 nM; for inhibition of amylase secretion stimulated by CCK-8 and TPA / increase in amylase release: 30 min; for effect on basal amylase release: pancreatic acini (Figure 13A)
Method: Pancreatic acini preparations were obtained by collagenase digestion as previously described ([Bissonnette et al., 1984]; [Sato et al., 1989]; [Ramos-Alvarez and Jensen, 2018]). […] Isolated acini and CCK1-R/Panc-1 cells (M&M 2.2.1) were also preincubated with two SSH1 inhibitors, D3 (25 μM, 1 h) ([Li et al., 2015]) or SE (50 μM, 3 h for acini; 24 h for CCK1-R/Panc-1 cells) ([Lee et al., 2017]). After preincubation, 1 mL aliquots of dispersed acini were incubated at 37°C for 3–15 min with CCK-8 (0.3 nM or 100 nM), for 5–15 min with TPA (1 µM) or without stimulants, used as control. Cells were lysed in lysis buffer (50 mM Tris/HCl pH 7.5, 150 mM NaCl, 1% Triton X-100, 1% deoxycholate, 0.1% sodium azide, 1 mM EGTA, 0.4 mM EDTA, 0.2 mM sodium orthovanadate, 1 mM PMSF, and one protease inhibitor tablet per 10 mL). After sonication, lysates were centrifuged at 10,000×g for 15 min at 4°C and protein concentration was measured using the Bio-Rad protein assay reagent. Finally, cells were processed as below for Western blotting.
Amylase release was performed as described previously ([Sato et al., 1989]; [Ramos-Alvarez and Jensen, 2018]). Amylase activity was determined after 30 min incubation using the Phadebas reagent and was expressed as percentage of the total cellular amylase released into the extracellular medium during the incubation ([Ramos-Alvarez and Jensen, 2018]).
FIGURE 13 Effect of two cofilin inhibitors, Cytochalasin D or Paclitaxel, (A, B), or Cofilin siRNA (C), on the ability of CCK/TPA/A71378-stimulated amylase release form pancreatic acini (A) or AR42J cells (B, C). In (A, B) pancreatic acini and AR42J cells were incubated in the absence or presence of Cytochalasin D (10 µM) or Paclitaxel (5 µM) for 4 h and then incubated with no additions (control) or CCK-8 (0.03, 0.3, 1 and 100 nM), TPA (1 µM) or A71378 (0.03 and 1 nM) for 30 min and then lysed. In (B, C) AR42J cells were treated with Dexamethasone (100 nM) for 72 h, and in (C) AR42J cells were transfected with siRNA Non-targeting Control and siRNA against cofilin for 48 h, and then incubated with no addition (control) or CCK-8 (0.03 and 1 nM) and A71378 (0.03 and 1 nM) for 30 min. Amylase release, expressed as percent of cellular total amylase secreted, was determined after 30 min incubation. Means ± S.E. of at least 3 independent experiments. N.S., No significant.

[1] = system: cofilin (pS3) in rat pancreatic acini; experiment: cofilin activation (phospho-pS3 cofilin Western blot) in isolated rat pancreatic acini; assay type: cell-based; conditions: for phosphorylation levels of cofilin with CCK-8 or TPA after cofilin inhibitor / inhibition of cofilin activation stimulated by CCK-8 or TPA: Cytochalasin D 10 µM or Paclitaxel 5 µM, 3 h; for phosphorylation levels of cofilin with CCK-8 or TPA after cofilin inhibitor: CCK-8 0.3 and 100 nM; for phosphorylation levels of cofilin with CCK-8 or TPA after cofilin inhibitor / time of return of cofilin phosphorylation to original basal level: TPA 1 µM; for inhibition of cofilin activation stimulated by CCK-8 or TPA: CCK-8 0.3 or 100 nM 3 min, TPA 1 µM 5 min; for time of return of cofilin phosphorylation to original basal level: CCK-8 0.3 or 100 nM
Method: Pancreatic acini preparations were obtained by collagenase digestion as previously described ([Bissonnette et al., 1984]; [Sato et al., 1989]; [Ramos-Alvarez and Jensen, 2018]). After collagenase digestion, dispersed acini were preincubated with different inhibitors in standard incubation solution ([Ramos-Alvarez and Jensen, 2018]; [Ramos-Ãlvarez et al., 2020]) for 3 h at 37°C under conditions specific for PKD/PKC, Src, PI3K, MAPKs, SSH1, LIMK, cofilin, other phosphatases and PAK4 inhibitors, as described previously ([Ramos-Alvarez and Jensen, 2018]; [Ramos-Ãlvarez et al., 2020]). Isolated acini and CCK1-R/Panc-1 cells (M&M 2.2.1) were also preincubated with two SSH1 inhibitors, D3 (25 μM, 1 h) ([Li et al., 2015]) or SE (50 μM, 3 h for acini; 24 h for CCK1-R/Panc-1 cells) ([Lee et al., 2017]). After preincubation, 1 mL aliquots of dispersed acini were incubated at 37°C for 3–15 min with CCK-8 (0.3 nM or 100 nM), for 5–15 min with TPA (1 µM) or without stimulants, used as control. Cells were lysed in lysis buffer (50 mM Tris/HCl pH 7.5, 150 mM NaCl, 1% Triton X-100, 1% deoxycholate, 0.1% sodium azide, 1 mM EGTA, 0.4 mM EDTA, 0.2 mM sodium orthovanadate, 1 mM PMSF, and one protease inhibitor tablet per 10 mL). After sonication, lysates were centrifuged at 10,000×g for 15 min at 4°C and protein concentration was measured using the Bio-Rad protein assay reagent. Finally, cells were processed as below for Western blotting.
Both concentrations of CCK-8 were used because CCK-8 is reported to have different responses with physiological and supraphysiological concentrations contributing to physiological and pathophysiological processes such as pancreatitis ([Dufresne et al., 2006]).
Western blotting and immunoprecipitation were performed as described previously ([Ramos-Alvarez and Jensen, 2018]). Whole cell lysates were subjected to SDS-PAGE using 4%–20% Tris–Glycine gels. […] Finally, membranes were then washed again twice in blocking buffer for 4 min, twice in washing buffer for 4 min, incubated for 4 min with chemiluminescence detection reagents. The intensity of the protein bands was measured using GeneTools software from Syngene, which were assessed in the linear detection range.
All experiments were performed at least 3 times. Data are presented as mean ± SEM and were analyzed with the non-parametric Kruskal–Wallis analysis (data was not normally distributed) and the Dunn’s multiple comparison test using the GraphPad Prism 8.0 software. P values < 0.05 were considered significant.
(A) Isolated pancreatic acini were incubated in the absence or presence of CCK-8 (100 nM), carbachol (1 μM), bombesin (1 nM), secretin (1 nM) or VIP (1 nM) for 1 min and then lysed. (B) Isolated pancreatic acini were incubated in the absence or presence of CCK-8 and CCK-JMV (at the indicate concentrations) for 3 min and then lysed. Western blots were analyzed using anti-pS3 cofilin, which mediates the activation state of cofilin. Bands were visualized using chemiluminescence and quantified by densitometry.

Molecule | inhibition of amylase secretion stimulated by CCK-8 and TPA (pancreatic acini; TPA 1 µM) | effect on basal amylase release (pancreatic acini) | phosphorylation levels of cofilin with CCK-8 or TPA after cofilin inhibitor [1] | inhibition of cofilin activation stimulated by CCK-8 or TPA [1] | time of return of cofilin phosphorylation to original basal level [1] | further results
C=C1[C@@H](C)[C@H]2[C@H](Cc3ccccc3)NC(=O)[C@]23[C@H](OC(C)=O)/C=C/[C@@](C)(O)C(=O)[C@@H](C)C/C=C/[C@H]3[C@@H]1O [Cytochalasin D] | completely inhibited | Neither of these two cofilin inhibitors influenced basal amylase release | significant increase in phosphorylation levels of cofilin | completely inhibited | – | –
CC(=O)O[C@H]1C(=O)[C@@]2(C)[C@H]([C@H](OC(=O)c3ccccc3)[C@]3(O)C[C@H](OC(=O)[C@H](O)[C@@H](NC(=O)c4ccccc4)c4ccccc4)C(C)=C1C3(C)C)[C@]1(OC(C)=O)CO[C@@H]1C[C@@H]2O [Paclitaxel] | completely inhibited | Neither of these two cofilin inhibitors influenced basal amylase release | significant increase in phosphorylation levels of cofilin | completely inhibited | – | –
CCCCCCCCCCCCCC(=O)O[C@@H]1[C@@H](C)[C@@]2(O)[C@@H](C=C(CO)C[C@]3(O)C(=O)C(C)=C[C@@H]23)[C@H]2C(C)(C)[C@]12OC(C)=O [TPA, 12-O-tetradecanoylphobol-13-acetate] | – | – | – | – | 60 min | increase in amylase release (pancreatic acini; TPA 1 µM): 278%
COOH-terminal octapeptide of cholecystokinin [CCK-8] | – | – | – | – | 60 min | increase in amylase release (pancreatic acini; CCK-8 0.3 nM): 207%; effect on cofilin phosphorylation (pS3) ([1]; 1 min, CCK-8 100 nM, carbachol 1 μM, bombesin 1 nM, secretin 1 nM or VIP 1 nM, n at least 3): rapidly decreased cofilin phosphorylation; concentration with detectible decrease in cofilin phosphorylation ([1]; 3 min): 1 pM; maximal dephosphorylation (i.e., activation) of cofilin ([1]; at 1 nM, 3 min): 62%; share of CCK-8 stimulation of cofilin activation mediated by the high-affinity state CCK1 receptor ([1]; from comparison with CCK-JMV): 58%; share of CCK-8 stimulation of cofilin activation mediated by the low affinity CCK1 receptor state ([1]; from comparison with CCK-JMV): 42%; EC50 ([1]; pS3 cofilin, 3 min incubation, at least 3 experiments, mean ± SEM, read-out: half-maximal effect (EC50) for decrease of cofilin phosphorylation): 1.8 ± 0.1 pM
